The source made the active and inactive calls.
Legend:
[1] = biological target: Acyl-homoserine lactone acylase PvdQ (Pseudomonas aeruginosa (strain LESB58), UniProt Q9I194); assay: P. aeruginosa PvdQ acylase inhibitors, dose response, biochemical, fluorescence, plate reader and imaging, cherry-picks (AID 493231)
HeLa = assay: HeLa cell cytotoxicity, dose response, cytotoxicity control, 24 h, cherry-picked samples (AID 504726); assay type: functional, cell-based; details: Homo sapiens;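 also: potency for cytotoxicity as loss of luminescence signal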
[2] = M. tuberculosis H37Rv growth inhibitors, H37Rv strain (AID 1626); assay type: functional
Prothrombin = Prothrombin (Homo sapiens, UniProt P00734); assay: Thrombin 1536 HTS Dose Response Confirmation. [Related pubchem assays: 1046 (Thrombin 1536 HTS; hits were confirmed in this assay)]; assay type: functional
Kallikrein-7 = Kallikrein-7 (Homo sapiens, UniProt P49862); assay: Fluorescence Intensity-based biochemical primary high throughput dose response assay to identify activators of kallikrein-7 (K7) zymogen.
Kallikrein-7, sequence (P49862 whole entry): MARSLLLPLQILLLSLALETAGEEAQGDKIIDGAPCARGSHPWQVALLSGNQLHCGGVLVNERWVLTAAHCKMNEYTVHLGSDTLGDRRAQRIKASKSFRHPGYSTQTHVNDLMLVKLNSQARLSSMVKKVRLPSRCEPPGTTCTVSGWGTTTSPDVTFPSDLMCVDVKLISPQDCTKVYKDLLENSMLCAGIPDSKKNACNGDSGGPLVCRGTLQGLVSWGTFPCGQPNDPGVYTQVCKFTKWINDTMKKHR

[3] = growth suppression of beta-catenin-knockout colon cells, dose response, cell-based, HCT116, human colon tumor (AID 1045); assay type: functional;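 also: HCT116 colon tumor cells with beta catenin knocked out; cells exposed to compound for 60 hours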
[4] = growth suppression of PTEN-null colon cells, dose response, cell-based, HCT116 PTEN knockout (AID 1047); assay type: functional;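 also: HCT116 colon tumor cells with PTEN knocked out; cells exposed to compound for 60 hours before readout; potency for loss of cell viability measured by luminescence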
cells [5] = assay type: functional, cell-based
cells [6] = assay type: functional, cell-based; remark: listed apart in the source
[7] = biological target: T1, Corticotropin-releasing factor receptor 2/Corticotropin-releasing factor-binding protein (Homo sapiens, UniProt P24387+Q13324); assay: activators of CRF receptor 2 with binding protein – uHTS hits, confirmation (AID 602473); assay type: functional; details: read-out: EC50_Mean
T1 sequence (Q13324 whole entry): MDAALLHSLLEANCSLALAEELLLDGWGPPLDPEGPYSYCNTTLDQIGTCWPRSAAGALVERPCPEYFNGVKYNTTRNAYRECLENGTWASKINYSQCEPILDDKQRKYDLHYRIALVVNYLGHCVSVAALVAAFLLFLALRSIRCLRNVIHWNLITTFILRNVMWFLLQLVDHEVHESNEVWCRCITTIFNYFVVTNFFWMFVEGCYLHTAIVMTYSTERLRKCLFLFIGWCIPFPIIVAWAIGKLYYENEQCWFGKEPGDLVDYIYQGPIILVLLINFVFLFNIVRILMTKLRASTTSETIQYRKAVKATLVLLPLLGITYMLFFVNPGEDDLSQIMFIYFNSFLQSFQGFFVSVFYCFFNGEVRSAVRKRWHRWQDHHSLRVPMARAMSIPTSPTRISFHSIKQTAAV
T1 sequence (P24387 whole entry): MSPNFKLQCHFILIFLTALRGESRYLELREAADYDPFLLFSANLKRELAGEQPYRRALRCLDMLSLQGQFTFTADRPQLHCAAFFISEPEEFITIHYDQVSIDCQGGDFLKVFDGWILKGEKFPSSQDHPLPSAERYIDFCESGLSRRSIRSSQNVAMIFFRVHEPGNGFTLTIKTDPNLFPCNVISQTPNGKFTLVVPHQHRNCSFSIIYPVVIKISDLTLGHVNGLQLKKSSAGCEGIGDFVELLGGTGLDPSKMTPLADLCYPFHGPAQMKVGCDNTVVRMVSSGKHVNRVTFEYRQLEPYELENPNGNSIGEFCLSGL

[8] = biological target: T1, Corticotropin-releasing factor receptor 2/Corticotropin-releasing factor-binding protein; assay: Dose Response confirmation of uHTS hits for small molecule antagonists of the CRF-binding protein and CRF-R2 receptor complex.; assay type: functional; details: read-out: IC50_Mean
Vero = assay: host cell cytotoxicity of antiviral hits, dose response, cytotoxicity control for West Nile virus antiviral project, secondary assay (AID 1650); assay type: functional; details: Chlorocebus sabaeus
[9] = biological target: Voltage-gated N-type calcium channel alpha-1B subunit/Amyloid beta A4 precursor protein-binding family A member 1 (Homo sapiens, UniProt Q00975+Q02410); assay: disruptors of Mint-PDZ/N-type channel peptide interaction – biochemical, HTRF, set 2, SAR follow-up (AID 434980); assay type: functional
[10] = biological target: T2, Alkaline phosphatase, tissue-nonspecific isozyme (Homo sapiens, UniProt P05186)
T2 sequence (P05186 whole entry): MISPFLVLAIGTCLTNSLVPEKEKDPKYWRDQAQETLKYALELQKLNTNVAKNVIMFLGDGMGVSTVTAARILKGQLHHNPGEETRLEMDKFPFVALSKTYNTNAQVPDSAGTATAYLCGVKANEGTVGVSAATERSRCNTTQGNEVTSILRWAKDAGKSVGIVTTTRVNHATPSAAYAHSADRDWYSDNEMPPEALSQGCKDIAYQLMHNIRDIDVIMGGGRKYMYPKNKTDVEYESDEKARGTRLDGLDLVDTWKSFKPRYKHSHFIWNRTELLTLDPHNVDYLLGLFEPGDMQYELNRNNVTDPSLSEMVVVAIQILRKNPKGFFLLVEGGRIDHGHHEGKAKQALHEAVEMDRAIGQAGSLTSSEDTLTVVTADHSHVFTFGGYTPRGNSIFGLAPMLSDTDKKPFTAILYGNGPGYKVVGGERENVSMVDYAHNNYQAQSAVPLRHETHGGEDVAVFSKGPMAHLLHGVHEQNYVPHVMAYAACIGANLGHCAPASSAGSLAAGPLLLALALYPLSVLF

[11] = biological target: Mitogen-activated protein kinase 10 (Homo sapiens, UniProt P53779); assay: Dose response biochemical screening assay for inhibitors of c-Jun N-Terminal Kinase 3 (JNK3). [Related pubchem assays: 746 ]
Mitogen-activated protein kinase 10, sequence (P53779 whole entry): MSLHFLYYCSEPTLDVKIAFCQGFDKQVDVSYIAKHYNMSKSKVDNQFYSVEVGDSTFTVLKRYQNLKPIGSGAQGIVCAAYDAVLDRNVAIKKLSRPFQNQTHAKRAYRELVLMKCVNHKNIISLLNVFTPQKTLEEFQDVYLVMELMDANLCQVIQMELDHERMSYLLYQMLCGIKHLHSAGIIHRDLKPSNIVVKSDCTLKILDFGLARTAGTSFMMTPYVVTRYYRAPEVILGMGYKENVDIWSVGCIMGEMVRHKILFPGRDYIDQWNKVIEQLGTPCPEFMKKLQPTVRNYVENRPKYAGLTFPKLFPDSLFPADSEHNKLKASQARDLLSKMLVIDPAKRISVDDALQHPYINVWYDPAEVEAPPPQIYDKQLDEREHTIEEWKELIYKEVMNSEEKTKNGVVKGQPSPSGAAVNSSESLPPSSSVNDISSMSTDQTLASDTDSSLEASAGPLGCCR

Cytochrome P450 3A4 = Cytochrome P450 3A4 (Homo sapiens, UniProt P08684);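 also: CYP3A4 tested as one member of a cytochrome P450 panel screen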
Cytochrome P450 3A4, sequence (P08684 whole entry): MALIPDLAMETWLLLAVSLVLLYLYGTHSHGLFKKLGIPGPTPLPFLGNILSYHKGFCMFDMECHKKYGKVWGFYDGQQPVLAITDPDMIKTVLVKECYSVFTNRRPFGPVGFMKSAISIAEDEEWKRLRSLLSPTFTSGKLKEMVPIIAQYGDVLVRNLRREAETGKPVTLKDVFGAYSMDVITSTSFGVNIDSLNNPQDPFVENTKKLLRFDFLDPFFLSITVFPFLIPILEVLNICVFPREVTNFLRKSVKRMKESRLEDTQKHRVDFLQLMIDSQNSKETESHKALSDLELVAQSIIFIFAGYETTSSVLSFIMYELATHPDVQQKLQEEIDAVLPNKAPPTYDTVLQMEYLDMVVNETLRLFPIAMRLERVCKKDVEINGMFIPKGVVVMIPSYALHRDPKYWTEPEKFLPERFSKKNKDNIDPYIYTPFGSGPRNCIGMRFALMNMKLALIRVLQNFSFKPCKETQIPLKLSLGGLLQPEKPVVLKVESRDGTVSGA

Cytochrome P450 2D6 = Cytochrome P450 2D6 (Homo sapiens, UniProt P10635);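 also: CYP2D6 member of a cytochrome P450 panel assay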
Cytochrome P450 2D6, sequence (P10635 whole entry): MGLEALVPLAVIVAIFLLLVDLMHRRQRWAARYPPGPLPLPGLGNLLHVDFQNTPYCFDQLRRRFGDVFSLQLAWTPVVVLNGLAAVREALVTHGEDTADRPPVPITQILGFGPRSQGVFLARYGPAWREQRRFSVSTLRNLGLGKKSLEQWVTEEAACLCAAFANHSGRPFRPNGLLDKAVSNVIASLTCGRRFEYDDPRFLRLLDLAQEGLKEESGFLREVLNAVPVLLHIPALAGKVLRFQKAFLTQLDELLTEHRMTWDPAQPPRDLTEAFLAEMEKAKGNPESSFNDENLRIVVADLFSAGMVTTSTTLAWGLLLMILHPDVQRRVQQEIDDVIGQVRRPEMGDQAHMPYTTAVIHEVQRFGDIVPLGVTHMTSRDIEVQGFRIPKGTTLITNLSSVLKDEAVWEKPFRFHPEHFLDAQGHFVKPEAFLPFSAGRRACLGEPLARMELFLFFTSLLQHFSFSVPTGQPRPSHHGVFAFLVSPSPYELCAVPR

[12] = P. falciparum Dd2 growth inhibitors, dose response, SYBR Green, dry powder samples, set 9 (AID 1159568); assay type: functional, cell-based

Acyl-homoserine lactone acylase PvdQ, sequence (Q9I194 24-193 limits assumed): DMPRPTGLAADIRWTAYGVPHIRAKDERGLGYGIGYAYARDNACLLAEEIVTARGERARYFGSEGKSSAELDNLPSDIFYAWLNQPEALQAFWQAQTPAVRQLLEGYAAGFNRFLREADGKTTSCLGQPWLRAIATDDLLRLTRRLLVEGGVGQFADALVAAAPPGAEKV
Acyl-homoserine lactone acylase PvdQ, sequence (Q9I194 217-762 limits assumed): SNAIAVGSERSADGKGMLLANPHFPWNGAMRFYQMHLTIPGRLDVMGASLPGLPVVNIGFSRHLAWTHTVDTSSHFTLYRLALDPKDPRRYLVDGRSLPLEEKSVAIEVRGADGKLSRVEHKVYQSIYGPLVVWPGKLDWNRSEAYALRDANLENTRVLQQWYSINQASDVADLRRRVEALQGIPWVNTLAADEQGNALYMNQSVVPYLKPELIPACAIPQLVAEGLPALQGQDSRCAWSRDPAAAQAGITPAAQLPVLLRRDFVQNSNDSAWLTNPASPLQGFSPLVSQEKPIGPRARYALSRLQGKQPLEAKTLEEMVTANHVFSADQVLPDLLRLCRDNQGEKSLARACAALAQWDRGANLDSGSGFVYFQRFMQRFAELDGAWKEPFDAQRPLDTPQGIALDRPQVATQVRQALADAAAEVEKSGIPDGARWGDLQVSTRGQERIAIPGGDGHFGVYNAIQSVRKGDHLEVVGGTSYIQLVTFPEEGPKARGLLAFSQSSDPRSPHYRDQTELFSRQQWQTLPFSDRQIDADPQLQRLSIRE

Question: For O=CNC1(c2ccccc2)CCCCC1, which AC50 [1] is on record?
Answer: 1.96 µM (active)

Question: Which AC50 (HeLa) does the source give for CN(C)c1ccc(/C=C/C(=O)c2ccc(O)cc2)cc1[N+](=O)[O-] here?
Answer: 51.7 µM (active)

Question: Which IC50 [2] does the source give for COc1ccc2ncc(OC(C)=O)cc2c1 here?
Answer: > 100 µM (active)

Question: What about the IC50 (Prothrombin) of the same compound?
Answer: 3.24 µM (active)

Question: For C=CCn1/c(=N/C(=O)c2ccc(S(=O)(=O)N3CCc4ccccc4C3)cc2)sc2cc(S(N)(=O)=O)ccc21, which EC50 (Kallikrein-7) is on record?
Answer: > 69.5 µM (inactive)

Question: And the EC50 [3]?
Answer: 4.56 µM (active)

Question: And the EC50 [4]?
Answer: 5.77 µM (active)

Question: For COc1ccc(/N=C2/C(=O)N3CCCc4cccc2c43)cc1, which IC50 [2] is on record?
Answer: > 100 µM (active)

Question: And the EC50 (cells [5])?
Answer: > 350 µM (not active)

Question: What about the EC50 (cells [6]) of the same compound?
Answer: > 350 µM (not active)

Question: For COC(=O)C1C(c2ccccc2)C(C(=O)OCc2ccco2)C1c1ccccc1 (stereo unspecified), which EC50 [7] is on record?
Answer: > 53 µM (inactive)

Question: And the IC50 [8]?
Answer: > 47.1 µM (inactive)

Question: And the CC50 (Vero)?
Answer: 30.1 µM (active)

Question: With COC(=O)c1ccc(OC(=O)c2ccco2)cc1 as the compound, how does the AC50 [1] read?
Answer: 1.99 µM (active)

Question: Which IC50 [9] does the source give for COc1ccccc1N1CCN(C(=O)c2cc(-c3ccco3)nc3ccccc23)CC1 here?
Answer: > 56.8 µM (inactive)

Question: With Cc1ccc(/C=N/Nc2cccc3cccnc23)c(O)c1 as the compound, how does the EC50 [10] read?
Answer: > 100 µM (not active)

Question: For CC(=O)Nc1cccc(-c2nc3ccccc3c(=O)o2)c1, which IC50 [11] is on record?
Answer: 41.9 µM (not active)

Question: What does the source list for Cc1cc([N+](=O)[O-])nn1CC(=O)NN=C(S)Nc1ccc(F)cc1?
Answer: EC50 [10]: 55.5 µM (not active); AC50 (Cytochrome P450 3A4): 22.4 µM (inconclusive); AC50 (Cytochrome P450 2D6): 0.00562 µM (inconclusive)

Question: With COc1ccccc1-c1ccc2c(c1)[C@@H]1[C@@H](CCN1C(=O)C1CCC1)[C@H](CO)N2 as the compound, how does the AC50 [12] read?
Answer: 2.92 µM (active)

— ChEMBL document CHEMBL1201862, “PubChem BioAssay data set” (2004)
